The molecules below were run on cancer cells (assay: MTT cytotoxic assay of esterification products (Cytotoxicity activity)). Details: MTT cytotoxic assay, isolated esterification products of E4A.
Assay type: cell-based, human
Excerpt: The peaks, fractions and compounds are selected according to the activities of times studies and the changes of peaks. Selecting the HPLC fractions for isolation is according to the cytotoxic activity of the reaction product obtained at a specific time. The compounds having strong to weak activities are selected and isolated. Selecting the HPLC fractions for isolation may be according to the cytotoxic activity of times studies and the change of peaks. The anti-cancer activities are the MTT studies of bone (U2OS), lung (H460), bladder (HTB-9), ovary (ES2), colon (HCT116), pancreas (Capan), ovary(OVCAR3), prostate (DU145), skin (SK-Mel-5), mouth (KB), kidney (A498), breast (MCF-7), liver (HepG2), brain (T98G), leukemia (K562), cervix (HeLa).
Esterification of compound (A), (B), (C), (D1), (D2), (E), (F), (G), (H1), (H2), E4A, E4A2Y, (P1), P(2), terpene, isoprene, triterpenes, hydroxylated triterpenes, with acyl halide, wherein the halide comprise chloride, bromide, fluoride and iodide, wherein the acyl halide comprise acyl chloride, wherein acyl chloride comprise tigloyl chloride, angeloyl chloride, acetyl chloride, crotonoyl chloride, 3,3-Dimethylacryloyl chloride, senecioyl chloride, cinnamoyl chloride, pentenoyl chloride, hexanoyl chloride, benzoyl chloride, ethylbutyryl chloride, propionyl chloride, 2-propenoyl chloride, isobutyryl chloride, butyryl chloride, (2E)-2-pentenoyl chloride, 4-Pentenoyl chloride, 5-hexenoyl chloride, heptanoyl chloride, octanoyl chloride, nonanoyl chloride, decanoyl chloride, Lauroyl chloride, myristoyl chloride, oleoyl chloride. The compounds vary in composition when the time or temperature of the reaction is changed. The peaks, fractions and compounds are selected according to the activities of times studies and the changes of peaks. The compounds having strong to weak activities are selected and isolated. The anti-cancer activities (Cytotoxic Assay) are the MTT studies of bone (U2OS), lung (H460), bladder(HTB-9), ovary (ES2), colon (HCT116), pancreas (Capan), ovary(OVCAR3), prostate (DU145), skin (SK-Mel-5), mouth (KB), kidney (A498), breast (MCF-7), liver (HepG2), brain (T98G), leukemia (K562), cervix (HeLa). The active esterification products are purified with HPLC. The reaction product of mixtures and individual compounds are tested with MTT Cytotoxic Assay. Details of method are in Experiment 3 of the present application. A second esterification of compound can be selected from the above experiment results to produce new active compounds. A partial esterification compound is selected from the above experiments to perform a second or repeated with a third esterification with different acyl chloride in order to produce new active compounds with the experiments in the present application.
Method: 40 mg of triterpene core (fraction IV) was dissolved in 1 ml pyridine in a 50 ml tube. Reaction is started by adding 0.2 ml of acyl chloride (Tigloyl chloride, angeloyl chloride, Acetyl chloride, Crotonoyl chloride, 3,3-Dimethylacryloyl chloride(senecioyl chloride), Cinnamoyl chloride, Pentenoyl chloride, Hexanoyl chloride, benzoyl chloride or Ethylbutyryl chloride). The mixture is stirred for 5 sec, 1 min, 2 min, 5 min, 10 min, 30 min, 1 hr, 2 hr, 18 hr, 2 days or 3 days at 0° C., 25° C. or 75° C. temperature. At the end of reaction, 5 ml of 2N HCl or 1 M NaHCO3 is added to the reaction mixture. The solution is then extracted 3 times with 10 ml of ethyl acetate which is then evaporated under vacuum and at 45C and lyophilization. The reaction product is dissolved in 80% acetonitrile - 0.005% Trifluoroacetic acid or DMSO; and was separated with HPLC. Selecting the HPLC fractions for isolation is according to the cytotoxic activity of the reaction product obtained at a specific reaction time. The active esterification products are purified with HPLC. The reaction product of mixtures and individual compounds are tested with MTT cytotoxic assay. Structures are determined with NMR. […]

| SMILES | Cytotoxicity activity |
| --- | --- |
| CC=C(C)C(=O)OCC1(C)C(O)CCC2(C)C1CCC1(C)C2CC=C2C3CC(C)(C)C(O)C(O)C3(CO)C(O)CC21C (stereo not drawn) [Compound A1] | moderate |
| CC=C(C)C(=O)OCC12C(O)CC3(C)C(=CCC4C5(C)CCC(O)C(C)(CO)C5CCC43C)C1CC(C)(C)C(O)C2O (stereo not drawn) [Compound A2] | moderate |
| CC=C(C)C(=O)OCC1(C)C(O)CCC2(C)C1CCC1(C)C2CC=C2C3CC(C)(C)C(O)C(O)C3(COC(=O)C(C)=CC)C(O)CC21C (stereo not drawn) [Compound A3] | strong |
| CC=C(C)C(=O)OCC1(C)C(O)CCC2(C)C1CCC1(C)C2CC=C2C3CC(C)(C)C(OC(=O)C(C)=CC)C(O)C3(COC(=O)C(C)=CC)C(O)CC21C (stereo not drawn) [Compound A4] | moderate |
| CC=C(C)C(=O)OCC1(C)C(O)CCC2(C)C1CCC1(C)C2CC=C2C3CC(C)(C)C(O)C(OC(=O)C(C)=CC)C3(COC(=O)C(C)=CC)C(O)CC21C (stereo not drawn) [Compound A5] | moderate |
| CC=C(C)C(=O)OCC1(C)C(OC(=O)C(C)=CC)CCC2(C)C1CCC1(C)C2CC=C2C3CC(C)(C)C(O)C(O)C3(COC(=O)C(C)=CC)C(O)CC21C (stereo not drawn) [Compound A6] | moderate |
| CC=C(C)C(=O)OCC1(C)C(O)CCC2(C)C1CCC1(C)C2CC=C2C3CC(C)(C)C(O)C(O)C3(COC(=O)C(C)=CC)C(OC(=O)C(C)=CC)CC21C (stereo not drawn) [Compound A7] | moderate |
| CC=C(C)C(=O)OCC1(C)C(O)CCC2(C)C1CCC1(C)C2CC=C2C3CC(C)(C)C(OC(=O)C(C)=CC)C(OC(=O)C(C)=CC)C3(COC(=O)C(C)=CC)C(O)CC21C (stereo not drawn) [Compound A8] | weak |
| CC=C(C)C(=O)OCC1(C)C(OC(=O)C(C)=CC)CCC2(C)C1CCC1(C)C2CC=C2C3CC(C)(C)C(O)C(OC(=O)C(C)=CC)C3(COC(=O)C(C)=CC)C(O)CC21C (stereo not drawn) [Compound A9] | weak |
| CC=C(C)C(=O)OCC1(C)C(OC(=O)C(C)=CC)CCC2(C)C1CCC1(C)C2CC=C2C3CC(C)(C)C(O)C(O)C3(COC(=O)C(C)=CC)C(OC(=O)C(C)=CC)CC21C (stereo not drawn) [Compound A10] | weak |
| CC=C(C)C(=O)OCC1(C)C(OC(=O)C(C)=CC)CCC2(C)C1CCC1(C)C2CC=C2C3CC(C)(C)C(OC(=O)C(C)=CC)C(O)C3(COC(=O)C(C)=CC)C(O)CC21C (stereo not drawn) [Compound A11] | weak |
| CC=C(C)C(=O)OCC1(C)C(O)CCC2(C)C1CCC1(C)C2CC=C2C3CC(C)(C)C(O)C(OC(=O)C(C)=CC)C3(COC(=O)C(C)=CC)C(OC(=O)C(C)=CC)CC21C (stereo not drawn) [Compound A12] | weak |
| CC=C(C)C(=O)OCC1(C)C(O)CCC2(C)C1CCC1(C)C2CC=C2C3CC(C)(C)C(OC(=O)C(C)=CC)C(O)C3(COC(=O)C(C)=CC)C(OC(=O)C(C)=CC)CC21C (stereo not drawn) [Compound A13] | weak |
| CC=C(C)C(=O)OCC1(C)C(OC(=O)C(C)=CC)CCC2(C)C1CCC1(C)C2CC=C2C3CC(C)(C)C(O)C(OC(=O)C(C)=CC)C3(COC(=O)C(C)=CC)C(O)CC21C (stereo not drawn) [Compound A14] | weak |
| CC=C(C)C(=O)OCC1(C)C(OC(=O)C(C)=CC)CCC2(C)C1CCC1(C)C2CC=C2C3CC(C)(C)C(OC(=O)C(C)=CC)C(OC(=O)C(C)=CC)C3(COC(=O)C(C)=CC)C(O)CC21C (stereo not drawn) [Compound A15] | weak |
| CC=C(C)C(=O)OCC1(C)C(O)CCC2(C)C1CCC1(C)C2CC=C2C3CC(C)(C)C(OC(=O)C(C)=CC)C(OC(=O)C(C)=CC)C3(COC(=O)C(C)=CC)C(OC(=O)C(C)=CC)CC21C (stereo not drawn) [Compound A16] | weak |
| CC=C(C)C(=O)OCC1(C)C(OC(=O)C(C)=CC)CCC2(C)C1CCC1(C)C2CC=C2C3CC(C)(C)C(OC(=O)C(C)=CC)C(O)C3(COC(=O)C(C)=CC)C(OC(=O)C(C)=CC)CC21C (stereo not drawn) [Compound A17] | weak |
| CC=C(C)C(=O)OCC1(C)C(OC(=O)C(C)=CC)CCC2(C)C1CCC1(C)C2CC=C2C3CC(C)(C)C(O)C(OC(=O)C(C)=CC)C3(COC(=O)C(C)=CC)C(OC(=O)C(C)=CC)CC21C (stereo not drawn) [Compound A18] | weak |

| SMILES | Cytotoxicity activity |
| --- | --- |
| CC=C(C)C(=O)OCC1(C)C(OC(=O)C(C)=CC)CCC2(C)C1CCC1(C)C2CC=C2C3CC(C)(C)C(OC(=O)C(C)=CC)C(OC(=O)C(C)=CC)C3(COC(=O)C(C)=CC)C(OC(=O)C(C)=CC)CC21C (stereo not drawn) [Compound A19] | none |
| CC=C(C)C(=O)OCC12C(O)CC3(C)C(=CCC4C5(C)CCC(O)C(C)(CO)C5CCC43C)C1CC(C)(C)C(OC(=O)C(C)=CC)C2OC(=O)C(C)=CC (stereo not drawn) [Compound A20] | moderate |
| CC=C(C)C(=O)OCC1(C)C(O)CCC2(C)C1CCC1(C)C2CC=C2C3CC(C)(C)C(OC(=O)C(C)=CC)C(OC(=O)C(C)=CC)C3(CO)C(O)CC21C (stereo not drawn) [Compound A21] | moderate |
| CC=C(C)C(=O)OC1C(OC(=O)C(C)=CC)C2(CO)C(OC(=O)C(C)=CC)CC3(C)C(=CCC4C5(C)CCC(O)C(C)(CO)C5CCC43C)C2CC1(C)C (stereo not drawn) [Compound A22] | moderate |
| CC=C(C)C(=O)OC1C(OC(=O)C(C)=CC)C2(CO)C(O)CC3(C)C(=CCC4C5(C)CCC(OC(=O)C(C)=CC)C(C)(CO)C5CCC43C)C2CC1(C)C (stereo not drawn) [Compound A23] | moderate |
| CC=C(C)C(=O)OC1C(OC(=O)C(C)=CC)C2(CO)C(O)CC3(C)C(=CCC4C5(C)CCC(O)C(C)(CO)C5CCC43C)C2CC1(C)C (stereo not drawn) [Compound A24] | moderate |
| CC=C(C)C(=O)OCC12C(O)CC3(C)C(=CCC4C5(C)CCC(O)C(C)(CO)C5CCC43C)C1CC(C)(C)C(OC(=O)C(C)=CC)C2O (stereo not drawn) [Compound A25] | moderate |
| CC=C(C)C(=O)OCC12C(O)CC3(C)C(=CCC4C5(C)CCC(O)C(C)(CO)C5CCC43C)C1CC(C)(C)C(O)C2OC(=O)C(C)=CC (stereo not drawn) [Compound A26] | moderate |
| CC=C(C)C(=O)OCC12C(O)CC3(C)C(=CCC4C5(C)CCC(OC(=O)C(C)=CC)C(C)(CO)C5CCC43C)C1CC(C)(C)C(O)C2O (stereo not drawn) [Compound A27] | moderate |
| CC=C(C)C(=O)OCC12C(OC(=O)C(C)=CC)CC3(C)C(=CCC4C5(C)CCC(O)C(C)(CO)C5CCC43C)C1CC(C)(C)C(O)C2O (stereo not drawn) [Compound A28] | moderate |
| CC=C(C)C(=O)OCC1(C)C(O)CCC2(C)C1CCC1(C)C2CC=C2C3CC(C)(C)C(OC(=O)C(C)=CC)C(O)C3(CO)C(O)CC21C (stereo not drawn) [Compound A29] | moderate |
| CC=C(C)C(=O)OCC1(C)C(O)CCC2(C)C1CCC1(C)C2CC=C2C3CC(C)(C)C(O)C(OC(=O)C(C)=CC)C3(CO)C(O)CC21C (stereo not drawn) [Compound A30] | moderate |
| CC=C(C)C(=O)OCC1(C)C(OC(=O)C(C)=CC)CCC2(C)C1CCC1(C)C2CC=C2C3CC(C)(C)C(O)C(O)C3(CO)C(O)CC21C (stereo not drawn) [Compound A31] | moderate |
| CC=C(C)C(=O)OCC1(C)C(O)CCC2(C)C1CCC1(C)C2CC=C2C3CC(C)(C)C(O)C(O)C3(CO)C(OC(=O)C(C)=CC)CC21C (stereo not drawn) [Compound A32] | moderate |
| CC(C)=CC(=O)OCC1(C)C(O)CCC2(C)C1CCC1(C)C2CC=C2C3CC(C)(C)C(O)C(O)C3(CO)C(O)CC21C (stereo not drawn) [Compound B1] | moderate |
| CC(C)=CC(=O)OCC12C(O)CC3(C)C(=CCC4C5(C)CCC(O)C(C)(CO)C5CCC43C)C1CC(C)(C)C(O)C2O (stereo not drawn) [Compound B2] | moderate |
| CC(C)=CC(=O)OCC1(C)C(O)CCC2(C)C1CCC1(C)C2CC=C2C3CC(C)(C)C(O)C(O)C3(COC(=O)C=C(C)C)C(O)CC21C (stereo not drawn) [Compound B3] | strong |
| CC(C)=CC(=O)OCC1(C)C(O)CCC2(C)C1CCC1(C)C2CC=C2C3CC(C)(C)C(OC(=O)C=C(C)C)C(O)C3(COC(=O)C=C(C)C)C(O)CC21C (stereo not drawn) [Compound B4] | moderate |
